Results reported in ChEMBL document CHEMBL2203027, “Lanostanoids from fungi: a group of potential anticancer compounds” (J Nat Prod, 2012).
≈ marks a conversion by molar mass, not a printed value.

Assays:
Mus musculus = species on record: Mus musculus; assay: Inhibition of TPA-induced tumor progression in mouse skin at 0.2 umol measured at week 20; format: functional
DU-145 = assay: Cytotoxicity against human DU145 cells; format: functional, cell-based
HeLa = assay: Cytotoxicity against human HeLa cells; format: functional, cell-based; settings: Homo sapiens, HeLa
[1] = Inhibition of rat microsomal 5-alpha reductase assessed as inhibition of conversion of [4-14C]testosterone to [4-14C] dihydrotestosterone after 10 mins
[2] = Cytotoxicity against human 95-D cells; format: functional, cell-based
L1210 = assay: Cytotoxicity against mouse L1210 cells; format: functional, cell-based
HL-60 = assay: Cytotoxicity against human HL60 cells; format: functional, cell-based
[3] = target: DNA topoisomerase 2-alpha (Homo sapiens, UniProt P11388); assay: Inhibition of topoisomerase 2
DNA topoisomerase 2-alpha, sequence (P11388 whole entry): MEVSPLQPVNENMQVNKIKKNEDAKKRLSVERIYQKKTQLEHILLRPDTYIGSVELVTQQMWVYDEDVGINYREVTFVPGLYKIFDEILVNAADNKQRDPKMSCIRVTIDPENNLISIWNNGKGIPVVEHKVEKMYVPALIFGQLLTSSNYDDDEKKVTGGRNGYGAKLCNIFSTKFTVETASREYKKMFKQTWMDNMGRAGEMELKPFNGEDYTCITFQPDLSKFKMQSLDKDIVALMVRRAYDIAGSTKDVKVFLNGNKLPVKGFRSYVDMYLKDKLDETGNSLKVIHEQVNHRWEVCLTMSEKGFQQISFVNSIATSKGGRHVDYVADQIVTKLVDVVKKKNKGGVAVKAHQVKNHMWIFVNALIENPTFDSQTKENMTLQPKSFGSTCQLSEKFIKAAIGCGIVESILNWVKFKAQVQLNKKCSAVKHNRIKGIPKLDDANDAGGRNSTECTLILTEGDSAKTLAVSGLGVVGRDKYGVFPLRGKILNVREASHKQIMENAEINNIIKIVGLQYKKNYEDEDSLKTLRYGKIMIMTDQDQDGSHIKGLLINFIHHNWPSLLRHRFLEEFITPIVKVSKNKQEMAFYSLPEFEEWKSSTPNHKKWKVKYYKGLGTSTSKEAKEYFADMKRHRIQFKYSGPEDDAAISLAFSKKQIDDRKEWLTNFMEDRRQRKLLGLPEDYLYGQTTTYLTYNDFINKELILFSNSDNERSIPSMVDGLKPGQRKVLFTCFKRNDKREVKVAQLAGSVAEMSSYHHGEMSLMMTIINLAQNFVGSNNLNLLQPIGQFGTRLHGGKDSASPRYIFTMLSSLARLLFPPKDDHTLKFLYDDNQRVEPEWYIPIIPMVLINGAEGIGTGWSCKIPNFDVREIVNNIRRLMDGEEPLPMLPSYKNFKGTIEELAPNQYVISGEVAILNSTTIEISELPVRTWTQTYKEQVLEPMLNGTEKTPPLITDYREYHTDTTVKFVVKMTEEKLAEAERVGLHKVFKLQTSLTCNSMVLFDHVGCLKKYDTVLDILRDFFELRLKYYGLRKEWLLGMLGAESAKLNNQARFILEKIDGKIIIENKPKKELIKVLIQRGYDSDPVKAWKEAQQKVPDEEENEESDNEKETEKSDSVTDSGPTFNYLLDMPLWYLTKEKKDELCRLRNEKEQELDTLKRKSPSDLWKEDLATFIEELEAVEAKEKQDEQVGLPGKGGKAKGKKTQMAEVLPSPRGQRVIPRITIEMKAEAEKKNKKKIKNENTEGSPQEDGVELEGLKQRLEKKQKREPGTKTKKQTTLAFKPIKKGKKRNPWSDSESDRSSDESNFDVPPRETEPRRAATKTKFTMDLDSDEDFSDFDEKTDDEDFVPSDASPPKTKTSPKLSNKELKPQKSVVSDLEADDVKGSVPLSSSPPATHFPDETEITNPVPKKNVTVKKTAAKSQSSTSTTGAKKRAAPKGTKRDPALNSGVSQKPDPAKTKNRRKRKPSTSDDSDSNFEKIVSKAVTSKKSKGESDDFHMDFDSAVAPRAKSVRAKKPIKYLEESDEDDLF

NUGC-3 = assay: Cytotoxicity against human NUGC3 cells; format: functional, cell-based
[4] = Growth inhibition of H-Ras transformed rat Rat2 cells; format: functional
J82 = assay: Growth inhibition of H-Ras expressing human J82 cells; format: functional
SGC-7901 = assay: Cytotoxicity against human SGC7901 cells; format: functional, cell-based
P388 = assay: Cytotoxicity against mouse P388 cells; format: functional, cell-based
Bel-7402 = assay: Cytotoxicity against human Bel7402 cells; format: functional, cell-based
[5] = Cytotoxicity against mouse Meth-A cells; format: functional, cell-based; settings: read-out: ED50 (the source's name)
[6] = Cytotoxicity against mouse LLC cells; format: functional, cell-based; settings: Lewis lung carcinoma, read-out: ED50 (the source's name)
[7] = tested on: Lewis lung carcinoma cell line; assay: Antitumor activity against mouse LLC cells allografted in C57B/6 mouse assessed as inhibition of tumor metastasis at 28 mg/kg relative to control; format: functional; set-up: scale not given: the % may be the effect or the level left
[8] = tested on: Lewis lung carcinoma cell line; assay: Antitumor activity against mouse LLC cells allografted in C57B/6 mouse assessed as tumor growth inhibition at 28 mg/kg relative to control; format: functional; settings: read-out: TGI

## C=C(CC[C@@H](C(=O)O)[C@H]1[C@H](O)C[C@@]2(C)C3=CC[C@H]4C(C)(C)[C@H](OC(C)=O)CC[C@]4(C)C3=CC[C@]12C)C(C)C
Mus musculus
  inhibition (INH): 92%

## C=C(CC[C@@H](C(=O)O)[C@H]1[C@H](O)C[C@@]2(C)C3=CC[C@H]4C(C)(CO)C(=O)CC[C@]4(C)C3=CC[C@]12C)C(C)C (stereo not given in full)
DU-145
  IC50: 49.7 µM

## C/C(=C\CC[C@@H](C)[C@H]1C[C@H](O)[C@@]2(C)C3=CC[C@H]4C(C)(C)C(=O)CC[C@]4(C)C3=CC[C@]12C)CO
HeLa
  IC50: 1 µM
[1]
  IC50: 41.9 µM

## CCO[C@@H]1C[C@H]2C(C)(C)[C@H](OC(C)=O)CC[C@]2(C)C2=C1[C@]1(C)[C@@H](OC(C)=O)C[C@H]([C@H](C)C(C/C=C(\C)C(=O)O)OC(C)=O)[C@@]1(C)CC2 (stereo not given in full)
[2]
  IC50: 46.5 µM
HeLa
  IC50: 59.1 µM

## CC(C)=CCC[C@@H](C=O)[C@H]1CC[C@@]2(C)C3=C(CC[C@]12C)[C@@]1(C)CC[C@H](O)C(C)(C)[C@@H]1CC3
L1210
  IC50: 34.4 µM

## CC(=O)O[C@H]1CC[C@]2(C)C3=C(CC[C@H]2C1(C)C)[C@]1(C)CC[C@H]([C@@H](CCC=C(C)C)C(=O)O)[C@@]1(C)CC3 [ACETYL TRAMETENOLIC ACID]
HL-60
  IC50: 25 µM

## C=C(CCC(C(=O)O)[C@H]1CC[C@@]2(C)C3=CC[C@H]4C(C)(C)C(=O)CC[C@]4(C)C3=CC[C@]12C)C(C)C (stereo not given in full) [DEHYDROEBURICONIC ACID]
[3]
  IC50: 4.6 µM
NUGC-3
  IC50: 38.4 µM

## CC(C)=CCC[C@@H](C(=O)O)[C@H]1CC[C@@]2(C)C3=CC[C@H]4C(C)(C)[C@@H](O)CC[C@]4(C)C3=CC[C@]12C [DEHYDROTRAMETENOLIC ACID]
[4]
  GI50: 39.2 µM
J82
  GI50: 26.7 µM

## CC(C)=CCCC(C(=O)O)[C@H]1CC[C@@]2(C)C3=CC[C@H]4C(C)(C)C(=O)CC[C@]4(C)C3=CC[C@]12C (stereo not given in full) [DEHYDROTRAMETENONIC ACID]
[3]
  IC50: 37.5 µM
NUGC-3
  IC50: 63.6 µM

## COc1cc([C@@H]2c3cc4c(cc3[C@@H](O[C@@H]3O[C@@H]5CO[C@@H](C)O[C@H]5[C@H](O)[C@H]3O)[C@H]3COC(=O)[C@H]23)OCO4)cc(OC)c1O [ETOPOSIDE]
SGC-7901
  IC50: 0.08 µM
P388
  IC50: 0.08 µM
HeLa
  IC50: 0.08 µM
Bel-7402
  IC50: 0.08 µM

## C/C(=C/CC[C@@H](C)[C@H]1CC[C@@]2(C)C3=C(CC[C@]12C)[C@@]1(C)CCC(=O)C(C)(C)[C@@H]1CC3=O)C(=O)O [GANODERIC ACID DM]
HeLa
  IC50: 101 µM
[1]
  IC50: 10.6 µM

## C/C(=C\[C@@H](O)C[C@@H](C)[C@H]1CC(=O)[C@@]2(C)C3=C(C(=O)[C@@H](O)[C@]12C)[C@@]1(C)CC[C@H](O)C(C)(C)[C@@H]1CC3=O)C(=O)O [GANODERIC ACID THETA]
[5]
  EC50: 2.3 µg/mL (≈ 4.33 µM)
[6]
  EC50: 2.3 µg/mL (≈ 4.33 µM)

## C/C(=C/CC[C@@H](C)[C@H]1C[C@H](O)[C@@]2(C)C3=CC[C@H]4C(C)(C)C(=O)CC[C@]4(C)C3=CC[C@]12C)C(=O)O [GANODERIC ACID TR]
[1]
  IC50: 8.5 µM

## CC(=O)O[C@@H](C/C=C(\C)C(=O)O)[C@@H](C)[C@H]1C[C@H](OC(C)=O)[C@@]2(C)C3=CC[C@H]4C(C)(C)[C@H](OC(C)=O)CC[C@]4(C)C3=CC[C@]12C [GANODERIC ACID T]
[7]
  Activity: 78%
[8]
  inhibition in vivo at 28 mg/kg: 63%
